From ChEMBL document CHEMBL3351422, “Discovery of N-substituted 7-azaindoline derivatives as potent, orally available M1 and M4 muscarinic acetylcholine receptors selective agonists” (Bioorg Med Chem Lett, 2014)

Tests used:
[1] = biological target: Alpha-2A adrenergic receptor (Homo sapiens) (UniProt P08913); test: Inhibition of human alpha2A adrenergic receptor at 3 uM by radioligand binding assay
[2] = biological target: Sigma non-opioid intracellular receptor 1 (Homo sapiens) (UniProt Q99720); test: Inhibition of human sigma1 receptor at 3 uM by radioligand binding assay
[3] = biological target: T1, Muscarinic acetylcholine receptor M5 (Homo sapiens) (UniProt P08912); test: Intrinsic activity at muscarinic M5 receptor (unknown origin) at 10 uM by calcium mobilization assay; assay type: functional
T1 sequence (whole entry): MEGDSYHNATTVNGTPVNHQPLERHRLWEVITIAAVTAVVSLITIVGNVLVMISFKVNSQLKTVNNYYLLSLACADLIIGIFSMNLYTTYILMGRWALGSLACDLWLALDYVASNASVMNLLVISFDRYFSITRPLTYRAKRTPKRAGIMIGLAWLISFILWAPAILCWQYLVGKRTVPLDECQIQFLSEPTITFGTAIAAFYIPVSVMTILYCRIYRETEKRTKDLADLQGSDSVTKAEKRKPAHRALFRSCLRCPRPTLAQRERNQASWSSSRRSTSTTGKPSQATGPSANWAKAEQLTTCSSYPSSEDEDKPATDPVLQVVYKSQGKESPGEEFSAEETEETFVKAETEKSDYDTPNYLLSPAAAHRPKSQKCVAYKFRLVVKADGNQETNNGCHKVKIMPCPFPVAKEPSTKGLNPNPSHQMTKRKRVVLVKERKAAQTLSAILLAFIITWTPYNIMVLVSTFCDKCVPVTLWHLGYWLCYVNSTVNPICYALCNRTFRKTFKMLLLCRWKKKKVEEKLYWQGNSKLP

[4] = biological target: Beta-2 adrenergic receptor (Homo sapiens) (UniProt P07550); test: Inhibition of human beta2 adrenergic receptor at 3 uM by radioligand binding assay
[5] = biological target: 5-hydroxytryptamine receptor 2B (Homo sapiens) (UniProt P41595); test: Inhibition of human 5-HT2B receptor at 3 uM by radioligand binding assay
[6] = biological target: 5-hydroxytryptamine receptor 3A (Homo sapiens) (UniProt P46098); test: Inhibition of human 5-HT3 receptor at 3 uM by radioligand binding assay
[7] = biological target: Acetylcholinesterase (Homo sapiens) (UniProt P22303); test: Inhibition of human acetylcholinesterase at 3 uM by radioligand binding assay
[8] = biological target: Alpha-1A adrenergic receptor (Rattus norvegicus) (UniProt P43140); test: Inhibition of rat alpha1A adrenergic receptor at 3 uM by radioligand binding assay
[9] = biological target: Adenosine receptor A3 (Homo sapiens) (UniProt P0DMS8); test: Inhibition of human adenosine A3 receptor at 3 uM by radioligand binding assay
[10] = species: Rattus norvegicus; test: Inhibition of rat GABAB type receptor at 3 uM by radioligand binding assay
[11] = biological target: Adenosine receptor A1 (Homo sapiens) (UniProt P30542); test: Inhibition of human adenosine A1 receptor at 3 uM by radioligand binding assay
[12] = species: Rattus norvegicus; test: Inhibition of rat Rolipram binding site at 3 uM by radioligand binding assay
[13] = biological target: L-type calcium channel, benzothiazepine binding site (Rattus norvegicus, UniProt P22002+P27732+Q02485); test: Inhibition of rat L-type calcium channel benzothiazepine binding site at 3 uM by radioligand binding assay; assay type: protein assay
[14] = Volume of distribution at steady state in rat at 0.25 mg/kg, iv and 2.5 mg/kg, po; assay type: ADME, organism-based; conditions: in vivo, read-out: Vdss
[15] = Half life in rat at 0.25 mg/kg, iv and 2.5 mg/kg, po; assay type: ADME, organism-based; conditions: in vivo
[16] = biological target: T2, Muscarinic acetylcholine receptor M4 (Homo sapiens) (UniProt P08173); test: Intrinsic activity at muscarinic M4 receptor (unknown origin) by calcium mobilization assay; assay type: functional
T2 sequence (whole entry): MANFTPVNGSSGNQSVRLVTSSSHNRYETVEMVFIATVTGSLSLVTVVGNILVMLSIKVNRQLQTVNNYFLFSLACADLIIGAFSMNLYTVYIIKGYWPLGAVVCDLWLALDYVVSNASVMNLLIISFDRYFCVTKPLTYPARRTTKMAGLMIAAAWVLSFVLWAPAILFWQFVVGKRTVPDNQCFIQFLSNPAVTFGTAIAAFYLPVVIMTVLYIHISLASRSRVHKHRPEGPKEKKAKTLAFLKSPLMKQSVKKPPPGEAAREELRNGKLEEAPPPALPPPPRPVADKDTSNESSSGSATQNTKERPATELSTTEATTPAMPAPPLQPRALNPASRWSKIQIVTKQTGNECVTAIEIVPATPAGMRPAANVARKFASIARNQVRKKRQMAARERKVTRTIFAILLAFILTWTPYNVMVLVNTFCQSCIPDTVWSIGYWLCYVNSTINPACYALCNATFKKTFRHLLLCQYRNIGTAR

[17] = biological target: Voltage-gated inwardly rectifying potassium channel KCNH2 (Homo sapiens, UniProt Q12809); test: Inhibition of human ERG channel
[18] = Oral bioavailability in dog at 1 mg/kg; assay type: ADME, organism-based, Canis lupus familiaris; conditions: in vivo
[19] = biological target: Sodium-dependent dopamine transporter (Homo sapiens) (UniProt Q01959); test: Inhibition of human DAT at 3 uM by radioligand binding assay
[20] = Clearance in rat at 0.25 mg/kg, iv and 2.5 mg/kg, po; assay type: ADME, organism-based; conditions: in vivo
[21] = biological target: Sodium-dependent serotonin transporter (Homo sapiens) (UniProt P31645); test: Inhibition of human SERT at 3 uM by radioligand binding assay
[22] = Blood brain barrier penetration in rat at 0.25 mg/kg, iv and 2.5 mg/kg, po; assay type: ADME, organism-based
[23] = biological target: Neuropeptide Y receptor type 1 (Homo sapiens) (UniProt P25929); test: Inhibition of human neuropeptide YY1 receptor at 3 uM by radioligand binding assay
[24] = biological target: Adrenergic receptor alpha-1 (Rattus norvegicus) (UniProt P15823+P23944+P43140); test: Inhibition of rat alpha1 adrenergic receptor at 3 uM by radioligand binding assay
[25] = biological target: Gamma-aminobutyric acid type B receptor subunit 1 (Homo sapiens) (UniProt Q9UBS5); test: Inhibition of human GABAB1A receptor at 3 uM by radioligand binding assay
[26] = biological target: D(2) dopamine receptor (Homo sapiens) (UniProt P14416); test: Inhibition of human dopamine D2S receptor at 3 uM by radioligand binding assay
[27] = biological target: Cannabinoid receptor 1 (Homo sapiens) (UniProt P21554); test: Inhibition of human CB1 receptor at 3 uM by radioligand binding assay
[28] = biological target: 5-hydroxytryptamine receptor 1A (Homo sapiens) (UniProt P08908); test: Inhibition of human 5-HT1A receptor at 3 uM by radioligand binding assay
[29] = biological target: Glutamate NMDA receptor (Rattus norvegicus) (UniProt P35439+Q00959+Q00960+Q00961+Q62645+Q8VHN2+Q9R1M7); test: Inhibition of rat NMDA receptor phencyclidine binding site at 3 uM by radioligand binding assay; assay type: protein-complex assay
[30] = biological target: Somatostatin receptor type 4 (Homo sapiens) (UniProt P31391); test: Inhibition of human SST4 receptor at 3 uM by radioligand binding assay

Sequence of Adenosine receptor A1 (Homo sapiens) (P30542 whole entry): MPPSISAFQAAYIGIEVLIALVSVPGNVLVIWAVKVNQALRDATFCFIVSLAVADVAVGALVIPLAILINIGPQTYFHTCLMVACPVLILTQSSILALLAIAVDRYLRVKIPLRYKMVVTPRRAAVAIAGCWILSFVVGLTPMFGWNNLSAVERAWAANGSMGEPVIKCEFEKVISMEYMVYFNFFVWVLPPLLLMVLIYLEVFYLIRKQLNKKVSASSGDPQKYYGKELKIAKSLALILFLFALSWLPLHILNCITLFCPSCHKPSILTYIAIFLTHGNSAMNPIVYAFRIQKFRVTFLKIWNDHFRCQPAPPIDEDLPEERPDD
Sequence of D(2) dopamine receptor (Homo sapiens) (P14416 whole entry): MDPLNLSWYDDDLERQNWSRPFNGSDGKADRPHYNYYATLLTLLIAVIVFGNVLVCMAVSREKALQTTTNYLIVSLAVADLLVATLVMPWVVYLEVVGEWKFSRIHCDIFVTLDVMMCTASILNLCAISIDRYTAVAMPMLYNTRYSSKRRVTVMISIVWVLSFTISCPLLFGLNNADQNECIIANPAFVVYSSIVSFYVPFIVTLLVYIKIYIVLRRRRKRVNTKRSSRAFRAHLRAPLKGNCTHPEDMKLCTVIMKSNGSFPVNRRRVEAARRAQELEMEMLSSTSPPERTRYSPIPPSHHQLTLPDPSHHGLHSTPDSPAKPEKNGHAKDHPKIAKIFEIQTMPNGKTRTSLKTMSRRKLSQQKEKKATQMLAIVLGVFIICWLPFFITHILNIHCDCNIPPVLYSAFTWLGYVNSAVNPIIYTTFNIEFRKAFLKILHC
Sequence of Sodium-dependent serotonin transporter (Homo sapiens) (P31645 whole entry, looked up): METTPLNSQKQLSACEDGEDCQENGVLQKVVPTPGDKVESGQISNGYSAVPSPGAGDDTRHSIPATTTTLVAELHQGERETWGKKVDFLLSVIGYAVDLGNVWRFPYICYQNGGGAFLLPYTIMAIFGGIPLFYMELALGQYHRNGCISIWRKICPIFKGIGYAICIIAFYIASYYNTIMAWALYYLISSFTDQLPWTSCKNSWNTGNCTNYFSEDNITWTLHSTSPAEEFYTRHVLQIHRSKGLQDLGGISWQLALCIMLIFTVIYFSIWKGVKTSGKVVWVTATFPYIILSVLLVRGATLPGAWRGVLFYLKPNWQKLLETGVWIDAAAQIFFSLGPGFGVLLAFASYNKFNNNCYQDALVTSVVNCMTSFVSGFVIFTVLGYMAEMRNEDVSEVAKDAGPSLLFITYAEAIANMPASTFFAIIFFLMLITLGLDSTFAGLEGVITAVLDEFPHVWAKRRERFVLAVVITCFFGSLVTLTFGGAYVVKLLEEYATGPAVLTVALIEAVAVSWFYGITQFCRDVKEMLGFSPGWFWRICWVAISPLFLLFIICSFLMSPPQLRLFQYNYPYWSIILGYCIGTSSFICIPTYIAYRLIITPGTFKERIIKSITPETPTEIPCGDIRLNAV
Sequence of Acetylcholinesterase (Homo sapiens) (P22303 whole entry): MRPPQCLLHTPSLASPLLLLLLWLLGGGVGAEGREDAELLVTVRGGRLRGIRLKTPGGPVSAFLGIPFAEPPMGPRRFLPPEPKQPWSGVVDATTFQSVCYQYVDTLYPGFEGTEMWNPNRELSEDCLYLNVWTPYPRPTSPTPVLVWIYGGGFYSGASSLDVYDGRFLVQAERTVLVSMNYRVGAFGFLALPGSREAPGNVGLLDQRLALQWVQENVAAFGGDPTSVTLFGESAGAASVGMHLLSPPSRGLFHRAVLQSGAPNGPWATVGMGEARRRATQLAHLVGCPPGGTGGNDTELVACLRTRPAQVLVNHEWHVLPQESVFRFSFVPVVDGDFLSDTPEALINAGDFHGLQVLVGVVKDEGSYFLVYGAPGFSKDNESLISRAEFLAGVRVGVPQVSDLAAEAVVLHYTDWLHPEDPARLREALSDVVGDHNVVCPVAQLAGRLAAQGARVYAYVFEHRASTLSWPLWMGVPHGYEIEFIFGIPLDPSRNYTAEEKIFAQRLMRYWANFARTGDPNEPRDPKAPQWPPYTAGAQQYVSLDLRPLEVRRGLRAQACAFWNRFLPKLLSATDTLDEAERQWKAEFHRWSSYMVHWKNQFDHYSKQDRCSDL
Sequence of Cannabinoid receptor 1 (Homo sapiens) (P21554 whole entry): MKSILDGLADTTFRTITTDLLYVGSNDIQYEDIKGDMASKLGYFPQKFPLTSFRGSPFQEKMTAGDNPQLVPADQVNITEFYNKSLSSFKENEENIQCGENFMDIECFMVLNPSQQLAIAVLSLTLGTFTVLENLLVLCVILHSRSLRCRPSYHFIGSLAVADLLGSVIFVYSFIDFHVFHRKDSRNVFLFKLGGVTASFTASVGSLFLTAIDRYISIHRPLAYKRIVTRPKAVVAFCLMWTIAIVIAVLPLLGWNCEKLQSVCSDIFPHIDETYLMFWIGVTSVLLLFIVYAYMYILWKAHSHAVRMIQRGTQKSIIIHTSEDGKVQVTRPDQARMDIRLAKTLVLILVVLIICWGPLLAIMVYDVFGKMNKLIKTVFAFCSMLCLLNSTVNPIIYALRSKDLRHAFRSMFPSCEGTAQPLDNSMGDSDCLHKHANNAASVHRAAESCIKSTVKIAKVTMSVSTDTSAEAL
Sequence of 5-hydroxytryptamine receptor 2B (Homo sapiens) (P41595 whole entry): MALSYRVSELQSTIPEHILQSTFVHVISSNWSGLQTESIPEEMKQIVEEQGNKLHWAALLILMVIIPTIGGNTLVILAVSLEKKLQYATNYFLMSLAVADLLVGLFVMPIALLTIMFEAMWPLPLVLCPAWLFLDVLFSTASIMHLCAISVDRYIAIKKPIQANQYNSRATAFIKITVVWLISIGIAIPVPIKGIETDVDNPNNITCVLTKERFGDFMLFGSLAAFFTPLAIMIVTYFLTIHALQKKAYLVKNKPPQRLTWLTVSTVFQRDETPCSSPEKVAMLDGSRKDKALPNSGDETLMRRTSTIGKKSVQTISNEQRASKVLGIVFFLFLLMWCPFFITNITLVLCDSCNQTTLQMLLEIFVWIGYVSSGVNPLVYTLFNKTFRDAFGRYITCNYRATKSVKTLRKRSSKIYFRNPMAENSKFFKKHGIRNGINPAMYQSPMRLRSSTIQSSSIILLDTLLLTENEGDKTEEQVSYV
Sequence of Alpha-2A adrenergic receptor (Homo sapiens) (P08913 whole entry): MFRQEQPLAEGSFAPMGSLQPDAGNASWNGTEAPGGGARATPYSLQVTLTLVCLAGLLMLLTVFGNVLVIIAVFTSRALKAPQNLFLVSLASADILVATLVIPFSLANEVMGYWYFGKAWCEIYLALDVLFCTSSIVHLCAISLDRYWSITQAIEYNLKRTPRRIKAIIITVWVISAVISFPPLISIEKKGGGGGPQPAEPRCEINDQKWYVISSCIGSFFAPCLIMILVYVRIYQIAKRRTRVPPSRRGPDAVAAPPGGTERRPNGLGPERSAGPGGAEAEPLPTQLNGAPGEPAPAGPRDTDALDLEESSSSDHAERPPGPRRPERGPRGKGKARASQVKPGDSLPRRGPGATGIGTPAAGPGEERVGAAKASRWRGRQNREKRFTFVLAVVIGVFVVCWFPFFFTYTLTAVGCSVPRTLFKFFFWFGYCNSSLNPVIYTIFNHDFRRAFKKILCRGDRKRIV
Sequence of Sodium-dependent dopamine transporter (Homo sapiens) (Q01959 whole entry): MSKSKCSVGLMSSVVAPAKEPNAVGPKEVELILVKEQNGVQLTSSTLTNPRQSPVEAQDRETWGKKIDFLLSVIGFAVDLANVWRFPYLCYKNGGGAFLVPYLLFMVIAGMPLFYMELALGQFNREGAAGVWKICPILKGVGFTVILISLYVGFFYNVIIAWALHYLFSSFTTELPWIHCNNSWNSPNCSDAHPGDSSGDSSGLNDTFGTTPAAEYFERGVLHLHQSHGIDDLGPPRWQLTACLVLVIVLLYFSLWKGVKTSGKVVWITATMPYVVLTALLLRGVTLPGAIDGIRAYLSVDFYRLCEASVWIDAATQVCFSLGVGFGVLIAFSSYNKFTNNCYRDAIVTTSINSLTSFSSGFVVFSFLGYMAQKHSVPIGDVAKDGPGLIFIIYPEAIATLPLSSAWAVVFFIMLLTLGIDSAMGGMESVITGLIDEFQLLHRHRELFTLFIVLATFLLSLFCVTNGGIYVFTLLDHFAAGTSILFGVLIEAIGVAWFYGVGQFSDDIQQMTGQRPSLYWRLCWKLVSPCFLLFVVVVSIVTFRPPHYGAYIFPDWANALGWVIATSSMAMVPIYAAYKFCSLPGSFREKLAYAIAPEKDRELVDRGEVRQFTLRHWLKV
Sequence of Alpha-1A adrenergic receptor (Rattus norvegicus) (P43140 whole entry): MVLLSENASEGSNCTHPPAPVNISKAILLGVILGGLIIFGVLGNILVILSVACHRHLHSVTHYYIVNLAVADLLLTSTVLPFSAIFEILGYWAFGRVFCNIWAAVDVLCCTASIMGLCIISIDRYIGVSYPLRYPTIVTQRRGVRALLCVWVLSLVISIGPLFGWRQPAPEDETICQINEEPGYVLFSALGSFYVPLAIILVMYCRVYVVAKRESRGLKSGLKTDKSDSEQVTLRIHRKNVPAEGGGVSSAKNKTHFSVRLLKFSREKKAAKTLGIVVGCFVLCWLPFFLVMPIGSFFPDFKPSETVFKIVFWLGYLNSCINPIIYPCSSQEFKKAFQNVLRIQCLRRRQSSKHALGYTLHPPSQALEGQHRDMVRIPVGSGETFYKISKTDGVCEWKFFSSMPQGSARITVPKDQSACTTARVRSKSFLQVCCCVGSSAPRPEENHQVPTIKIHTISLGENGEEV
Sequence of Neuropeptide Y receptor type 1 (Homo sapiens) (P25929 whole entry): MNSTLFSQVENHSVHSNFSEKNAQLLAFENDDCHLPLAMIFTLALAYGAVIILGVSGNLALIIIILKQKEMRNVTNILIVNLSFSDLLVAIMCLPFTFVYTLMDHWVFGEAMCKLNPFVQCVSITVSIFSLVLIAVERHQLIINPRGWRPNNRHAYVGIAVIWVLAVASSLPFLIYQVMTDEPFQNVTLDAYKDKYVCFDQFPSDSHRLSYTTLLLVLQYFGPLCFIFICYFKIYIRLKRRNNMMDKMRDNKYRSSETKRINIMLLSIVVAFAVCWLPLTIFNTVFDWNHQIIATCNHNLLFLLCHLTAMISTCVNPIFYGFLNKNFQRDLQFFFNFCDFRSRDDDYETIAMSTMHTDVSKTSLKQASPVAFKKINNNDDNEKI

## CCOC(=O)N1CCC(CN2CCC3(CC2)CN(C(=O)N(C)C)c2ncccc23)CC1.O=C(O)/C=C/C(=O)O
[1]
  inhibition: -7%
[2]
  inhibition: 57%
[3]
  Intrinsic activity: 11%
[4]
  inhibition: -1%
[5]
  inhibition: 11%
[6]
  inhibition: -10%
[7]
  inhibition: 5%
[8]
  inhibition: 37%
[9]
  inhibition: -8%
[10]
  inhibition: 14%
[11]
  inhibition: 15%
[12]
  inhibition: 16%
[13]
  inhibition at 3 µM: -21%
[14]
  Vd: 1.8 L/kg
[15]
  half-life: 54 min
[16]
  Intrinsic activity: 108%
[17]
  IC50: > 10 µM
[18]
  bioavailability: 49.3%
[19]
  inhibition: -2%
[20]
  clearance: 28.4 mL/min/kg
[21]
  inhibition: 3%
[22]
  Kp: 0.7
[23]
  inhibition: -2%
[24]
  inhibition: 21%
[25]
  inhibition: 2%
[26]
  inhibition: 2%
[27]
  inhibition: 11%
[28]
  inhibition: -6%
[29]
  inhibition: 0%
[30]
  inhibition: -10%
